Data taken from the OligoGym collection.
HELM strings list units from the 5' end as sugar, base in round brackets, then linkage (d deoxyribose, r ribose, m 2'-O-methyl, p phosphodiester). Strings are as the collection lists them; they lack the last nucleoside at the 3' end of the tested compound. [moe] = 2'-O-(2-methoxyethyl) (MOE); [sp] = phosphorothioate linkage; [m5C] = 5-methylcytosine

Biological target: UBE3A-ATS
Assay: mouse, dose not given
Details: ASO

Substance | 3 h FOB score [score 0-7]
RNA1{[moe](G)[sp].[moe](T)p.[moe](G)p.[moe]([m5C])p.[moe](A)p.[moe](T)p.d(A)[sp].d([m5C])[sp].d([m5C])[sp].d([m5C])[sp].d(A)[sp].d(G)[sp].d(G)[sp].d(G)[sp].d(T)[sp].d(A)[sp].[moe](G)p.[moe](G)[sp].[moe](A)}$$$$ (last 3' nucleoside missing) | 1
RNA1{[moe](G)[sp].[moe](T)p.[moe](G)p.[moe]([m5C])p.[moe](A)p.d(T)[sp].d(A)[sp].d([m5C])[sp].d([m5C])[sp].d([m5C])[sp].d(A)[sp].d(G)[sp].d(G)[sp].d(G)[sp].d(T)[sp].[moe](A)p.[moe](G)p.[moe](G)[sp].[moe](A)}$$$$ (last 3' nucleoside missing) | 1.2
RNA1{[moe](G)[sp].[moe](T)p.[moe](G)p.[moe]([m5C])p.[moe]([m5C])p.d(T)[sp].d(T)[sp].d(T)[sp].d([m5C])[sp].d(T)[sp].d(A)[sp].d(T)[sp].d(T)[sp].d(T)[sp].d([m5C])[sp].[moe](A)p.[moe](G)p.[moe](A)[sp].[moe]([m5C])}$$$$ (last 3' nucleoside missing) | 0
RNA1{[moe](G)[sp].[moe](T)p.[moe](G)p.[moe]([m5C])p.d(A)[sp].d(T)[sp].d(A)[sp].d([m5C])[sp].d([m5C])[sp].d([m5C])[sp].d(A)[sp].d(G)[sp].d(G)[sp].d(G)[sp].[moe](T)p.[moe](A)p.[moe](G)p.[moe](G)[sp].[moe](A)}$$$$ (last 3' nucleoside missing) | 2
RNA1{[moe](G)[sp].[moe](T)p.[moe](T)p.[moe](A)p.[moe](G)p.d(G)[sp].d(T)[sp].d(T)[sp].d(A)[sp].d(G)[sp].d(T)[sp].d(G)[sp].d([m5C])[sp].d(A)[sp].d([m5C])[sp].[moe](A)p.[moe](G)p.[moe](A)[sp].[moe](T)}$$$$ (last 3' nucleoside missing) | 6
RNA1{[moe](G)[sp].[moe](T)p.[moe](T)p.[moe](T)p.[moe](A)p.d(G)[sp].d(G)[sp].d(T)[sp].d([m5C])[sp].d(A)[sp].d(A)[sp].d([m5C])[sp].d([m5C])[sp].d(A)[sp].d(A)[sp].[moe](T)p.[moe](T)p.[moe](T)[sp].[moe](G)}$$$$ (last 3' nucleoside missing) | 1
RNA1{[moe](G)[sp].[moe](T)p.[moe](T)p.[moe](T)p.[moe](A)p.d(T)[sp].d(A)[sp].d(G)[sp].d(G)[sp].d(G)[sp].d(T)[sp].d(G)[sp].d(G)[sp].d(T)[sp].d(T)[sp].[moe](G)p.[moe](G)p.[moe](T)[sp].[moe](T)}$$$$ (last 3' nucleoside missing) | 7
RNA1{[moe](G)[sp].[moe](T)p.[moe](T)p.[moe](T)p.[moe](T)p.[moe](T)p.d([m5C])[sp].d([m5C])[sp].d(A)[sp].d(T)[sp].d(T)[sp].d(T)[sp].d(T)[sp].d(T)[sp].d([m5C])[sp].d(T)[sp].[moe]([m5C])p.[moe](T)[sp].[moe](T)}$$$$ (last 3' nucleoside missing) | 0
RNA1{[moe](G)[sp].[moe](T)p.[moe](T)p.[moe](T)p.[moe](T)p.d(T)[sp].d([m5C])[sp].d([m5C])[sp].d(A)[sp].d(T)[sp].d(T)[sp].d(T)[sp].d(T)[sp].d(T)[sp].d([m5C])[sp].[moe](T)p.[moe]([m5C])p.[moe](T)[sp].[moe](T)}$$$$ (last 3' nucleoside missing) | 0
RNA1{[moe](G)[sp].[moe](T)p.[moe](T)p.[moe](T)p.[moe](T)p.d([m5C])[sp].d(G)[sp].d([m5C])[sp].d([m5C])[sp].d([m5C])[sp].d(G)[sp].d(T)[sp].d(T)[sp].d(A)[sp].d([m5C])[sp].[moe]([m5C])p.[moe](T)p.[moe]([m5C])[sp].[moe](A)}$$$$ (last 3' nucleoside missing) | 5.3
RNA1{[moe](G)[sp].[moe](T)p.[moe](T)p.[moe](T)p.d(T)[sp].d(T)[sp].d([m5C])[sp].d([m5C])[sp].d(A)[sp].d(T)[sp].d(T)[sp].d(T)[sp].d(T)[sp].d(T)[sp].[moe]([m5C])p.[moe](T)p.[moe]([m5C])p.[moe](T)[sp].[moe](T)}$$$$ (last 3' nucleoside missing) | 0
RNA1{[moe](G)[sp].[moe](T)p.[moe](T)p.[moe]([m5C])p.[moe](T)p.d(G)[sp].d(G)[sp].d(A)[sp].d(A)[sp].d(T)[sp].d([m5C])[sp].d(T)[sp].d(T)[sp].d(G)[sp].d(T)[sp].[moe](A)p.[moe](G)p.[moe](A)[sp].[moe](G)}$$$$ (last 3' nucleoside missing) | 4
RNA1{[moe](G)[sp].[moe](T)p.[moe]([m5C])p.[moe](A)[sp].d(T)[sp].d([m5C])[sp].d(T)[sp].d([m5C])[sp].d(G)[sp].d(G)[sp].d(G)[sp].d(T)[sp].[moe](A)p.[moe](T)p.[moe](A)p.[moe](T)[sp].[moe](A)}$$$$ (last 3' nucleoside missing) | 4.3
RNA1{[moe](G)[sp].[moe](T)p.[moe]([m5C])p.[moe](A)p.[moe](A)p.d([m5C])[sp].d([m5C])[sp].d(A)[sp].d(A)[sp].d(T)[sp].d(T)[sp].d(T)[sp].d(G)[sp].d([m5C])[sp].d(T)[sp].[moe](A)p.[moe](T)p.[moe](T)[sp].[moe]([m5C])}$$$$ (last 3' nucleoside missing) | 1
RNA1{[moe](G)[sp].[moe](T)p.[moe]([m5C])p.[moe](A)p.[moe](G)p.d(A)[sp].d(T)[sp].d(T)[sp].d([m5C])[sp].d([m5C])[sp].d(T)[sp].d(A)[sp].d(A)[sp].d(A)[sp].d(T)[sp].[moe](A)p.[moe]([m5C])p.[moe](G)[sp].[moe]([m5C])}$$$$ (last 3' nucleoside missing) | 0
RNA1{[moe](G)[sp].[moe](T)p.[moe]([m5C])p.[moe](A)p.[moe](G)p.d(A)[sp].d([m5C])[sp].d(T)[sp].d(T)[sp].d(A)[sp].d(T)[sp].d(T)[sp].d(G)[sp].d(A)[sp].d(G)[sp].[moe](G)p.[moe](A)p.[moe](T)[sp].[moe](G)}$$$$ (last 3' nucleoside missing) | 4
RNA1{[moe](G)[sp].[moe](T)p.[moe]([m5C])p.[moe](A)p.[moe](T)[sp].d([m5C])[sp].d(T)[sp].d([m5C])[sp].d(G)[sp].d(G)[sp].d(G)[sp].d(T)[sp].d(A)[sp].[moe](T)p.[moe](A)p.[moe](T)[sp].[moe](A)}$$$$ (last 3' nucleoside missing) | 4.3
RNA1{[moe](G)[sp].[moe](T)p.[moe]([m5C])p.[moe](A)p.[moe](T)p.[moe]([m5C])[sp].d(T)[sp].d([m5C])[sp].d(G)[sp].d(G)[sp].d(G)[sp].d(T)[sp].d(A)[sp].d(T)[sp].[moe](A)p.[moe](T)[sp].[moe](A)}$$$$ (last 3' nucleoside missing) | 4.7
RNA1{[moe](G)[sp].[moe](T)p.[moe]([m5C])p.[moe](A)p.[moe](T)p.[moe]([m5C])p.d(T)[sp].d([m5C])[sp].d(G)[sp].d(G)[sp].d(G)[sp].d(T)[sp].d(A)[sp].d(T)[sp].d(A)[sp].d(T)[sp].[moe](A)p.[moe](A)[sp].[moe](A)}$$$$ (last 3' nucleoside missing) | 4
RNA1{[moe](G)[sp].[moe](T)p.[moe]([m5C])p.[moe](A)p.[moe](T)p.d([m5C])[sp].d(A)[sp].d([m5C])[sp].d([m5C])[sp].d(T)[sp].d([m5C])[sp].d(T)[sp].d([m5C])[sp].d(T)[sp].d(T)[sp].[moe]([m5C])p.[moe](A)p.[moe](G)[sp].[moe](G)}$$$$ (last 3' nucleoside missing) | 1
RNA1{[moe](G)[sp].[moe](T)p.[moe]([m5C])p.[moe](A)p.[moe](T)p.d([m5C])[sp].d(T)[sp].d([m5C])[sp].d(G)[sp].d(G)[sp].d(G)[sp].d(T)[sp].d(A)[sp].d(T)[sp].d(A)[sp].[moe](T)p.[moe](A)p.[moe](A)[sp].[moe](A)}$$$$ (last 3' nucleoside missing) | 5.5
RNA1{[moe](G)[sp].[moe](T)p.[moe]([m5C])p.[moe](A)p.d(T)[sp].d([m5C])[sp].d(T)[sp].d([m5C])[sp].d(G)[sp].d(G)[sp].d(G)[sp].d(T)[sp].d(A)[sp].d(T)[sp].[moe](A)p.[moe](T)p.[moe](A)p.[moe](A)[sp].[moe](A)}$$$$ (last 3' nucleoside missing) | 4
RNA1{[moe](G)[sp].[moe](T)p.[moe]([m5C])p.[moe](T)p.[moe](T)p.d([m5C])[sp].d(A)[sp].d(T)[sp].d(T)[sp].d(A)[sp].d(T)[sp].d(T)[sp].d([m5C])[sp].d(T)[sp].d([m5C])[sp].[moe](T)p.[moe](A)p.[moe](G)[sp].[moe](T)}$$$$ (last 3' nucleoside missing) | 4.7
RNA1{[moe](G)[sp].[moe](T)p.[moe]([m5C])p.[moe](T)p.[moe]([m5C])p.d(T)[sp].d(G)[sp].d([m5C])[sp].d(T)[sp].d([m5C])[sp].d(A)[sp].d(G)[sp].d(T)[sp].d(T)[sp].d(A)[sp].[moe](G)p.[moe](G)p.[moe](T)[sp].[moe](T)}$$$$ (last 3' nucleoside missing) | 1
RNA1{[moe](G)[sp].[moe](T)p.[moe]([m5C])p.[moe](T)p.[moe]([m5C])p.d([m5C])[sp].d([m5C])[sp].d(T)[sp].d([m5C])[sp].d(T)[sp].d(T)[sp].d(A)[sp].d(G)[sp].d(T)[sp].d(G)[sp].[moe](A)p.[moe](T)p.[moe](T)[sp].[moe](G)}$$$$ (last 3' nucleoside missing) | 4
RNA1{[moe](G)[sp].[moe]([m5C])[sp].[moe]([m5C])[sp].[moe](T)[sp].[moe](A)[sp].d(A)[sp].d(T)[sp].d(A)[sp].d(T)[sp].d(G)[sp].d(T)[sp].d(G)[sp].d(T)[sp].d([m5C])[sp].d(A)[sp].[moe](T)[sp].[moe]([m5C])[sp].[moe]([m5C])[sp].[moe](T)}$$$$ (last 3' nucleoside missing) | 6.8
